Source: US20120283228A1, “2alpha-Methyl and 2beta-Methyl Analogs of 19,26-Dinor-1alpha,25-Dihydroxyvitamin D3 and Their Uses” (WISCONSIN ALUMNI RESEARCH FOUNDATION, priority 2011, published 2012)
Entries after “also recorded” stand apart in the source; their conditions may differ.

Columns and labels:
[1] = tested on: Human promyelocytic leukemia (HL60) cells; test: HL-60 differentiation (nitro blue tetrazolium reduction); format: cell-based
Procedure: Serial dilutions were prepared so that a range of drug concentrations could be tested without changing the final concentration of ethanol (≦0.2%) present in the cell cultures.
Human promyelocytic leukemia (HL60) cells were grown in RPMI-1640 medium containing 10% fetal bovine serus. The cells were incubated at 37° C. in the presence of 5% CO2.
HL60 cells were plated at 1.2×10^5 cells/ml. Eighteen hours after plating, cells in duplicate were treated with drug. Four days later, the cells were harvested and a nitro blue tetrazolium reduction assay was performed (Collins et al., 1979; J. Ex. Med. 149:969-974). The percentage of differentiated cells was determined by counting a total of 200 cells and recording the number that contained intracellular black-blue formazan deposits Verification of differentiation to monocytic cells was determined by measuring phagocytic activity (data not shown).

[2] = tested on: 24-hydroxylase (24Ohase) gene promoter; test: In vitro transcription assay in ROS 17/2.8 (bone) cells, luciferase reporter; format: cell-based
Procedure: Transcription activity was measured in ROS 17/2.8 (bone) cells that were stably transfected with a 24-hydroxylase (24Ohase) gene promoter upstream of a luciferase reporter gene (Arbour et al., 1998). Cells were given a range of doses. Sixteen hours after dosing the cells were harvested and luciferase activities were measured using a luminometer.
RLU=relative luciferase units.

[3] = tested on: vitamin D-deficient rats; test: Bone calcium mobilization (serum calcium); format: in vivo, Sprague-Dawley rats; settings: rats on low calcium diet (0.02%)
Procedure: (§1) Male, weanling Sprague-Dawley rats were placed on Diet 11 (0.47% Ca) diet +AEK for one week followed by Diet 11 (0.02% Ca) +AEK for 3 weeks. The rats were then switched to a diet containing 0.47% Ca for one week followed by two, weeks on a diet containing 0.02% Ca. Dose administration began during the last week on 0.02% calcium diet. Four consecutive ip doses were given approximately 24 hours apart. Twenty-four hours after the last dose, blood was collected from the severed neck and the concentration of serum calcium determined as a measure of bone calcium mobilization. The first 10 cm of the intestine was also collected for intestinal calcium transport analysis using the everted gut sac method.

[4] = tested on: vitamin D-deficient rats; test: Intestinal calcium transport (everted gut sac method); format: in vivo, Sprague-Dawley rats
Procedure: as §1

[5] = target: T1, full-length recombinant rat vitamin D receptor (Rattus norvegicus, UniProt P13053)
T1 sequence (P13053 1-423): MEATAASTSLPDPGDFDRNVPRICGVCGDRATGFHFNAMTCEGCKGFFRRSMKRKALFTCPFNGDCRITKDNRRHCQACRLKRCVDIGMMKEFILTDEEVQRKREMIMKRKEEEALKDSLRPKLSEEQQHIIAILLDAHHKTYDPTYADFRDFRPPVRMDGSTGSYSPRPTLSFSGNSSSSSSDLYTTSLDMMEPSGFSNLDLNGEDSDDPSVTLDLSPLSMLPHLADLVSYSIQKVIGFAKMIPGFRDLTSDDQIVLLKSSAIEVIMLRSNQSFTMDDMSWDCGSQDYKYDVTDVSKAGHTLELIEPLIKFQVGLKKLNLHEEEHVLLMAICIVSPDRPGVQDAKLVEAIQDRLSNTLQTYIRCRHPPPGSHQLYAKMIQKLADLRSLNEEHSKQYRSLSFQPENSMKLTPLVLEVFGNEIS
Procedure: (§2) Full-length recombinant rat receptor was expressed in E. coli BL21 (DE3) Codon Plus RIL cells and purified to homogeneity using two different column chromatography systems. The first system was a nickel affinity resin that utilizes the C-terminal histidine tag on this protein. The protein that was eluted from this resin was further purified using ion exchange chromatography (S-Sepharose Fast Flow). Aliquots of the purified protein were quick frozen in liquid nitrogen and stored at −80° C. until use. For use in binding assays, the protein was diluted in TEDK50 (50 mM Tris, 1.5 mM EDTA, pH 7.4, 5 mM DTT, 150 mM KCl) with 0.1% Chaps detergent. The receptor protein and ligand concentration was optimized such that no more than 20% of the added radiolabeled ligand as bound to the receptor.
(§3) Radiolabeled and unlabeled ligands were added to 100 mcl of the diluted protein at a final ethanol concentration of ≦10%; mixed and incubated overnight on ice to reach binding equilibrium. The following day, 100 mcl of hydroxylapaptite slurry (50%) was added to each tube and mixed at 10-minute intervals for 30 minutes. The hydroxylapaptite was collected by centrifugation and then washed three times with Tris-EDTA buffer (50 mM Tris, 1.5 mM EDTA, pH 7.4) containing 0.5% Titron X-100. After the final wash, the pellets were transferred to scintillation vials containing 4 ml of Biosafe II scintillation cocktail, mixed and placed in a scintillation counter. Total binding was determined from the tubes containing only radiolabeled ligand.

[6] = target: T1, full-length recombinant rat vitamin D receptor; test: biochemical; settings: ability to compete with [3H]-1,25(OH)2D3 for binding to the vitamin D receptor, full-length recombinant rat VDR
Procedure: as §2, §3

EC50 ([1]; HL-60 cells, read-out: EC50, ability to promote HL-60 cell differentiation): 5000 pM
EC50 ([2]; ROS 17/2.8 cells, 24-hydroxylase promoter-luciferase, read-out: EC50, transcriptional activity in bone cells): 600 pM
Ki [6]: 200 pM
Compound: CC(O)CCCC(C)C1CCC2C(=CC=C3CC(O)C(C)C(O)C3)CCCC21C (single isomer, unassigned) [NC-2]
HL-60 differentiation potency as compared to 1,25(OH)2D3 [1]: little difference
times more potent than 1,25(OH)2D3 on HL-60 differentiation ([1]; more potent than 1,25(OH)2D3): 4 times
transcriptional activity in bone cells as compared to 1α,25-dihydroxyvitamin D3 [2]: slightly less transcriptional activity
logs less transcriptional activity than 1α,25-dihydroxyvitamin D3 in bone cells ([2]; less than 1,25(OH)2D3): about one-half
mobilization of bone calcium at 7,020 pmol/day ([3]; 7,020 pmol/day for 4 consecutive days): did not result, in mobilization of bone calcium
mobilization of bone calcium at 35,100 pmol/day ([3]; 35,100 pmol/day for 4 consecutive days): without any substantial effect
activity in mobilizing calcium from bone / serum calcium levels ([3]; all dosages tested): little, if any, activity
times less potent than 1,25(OH)2D3 in bone (bone calcium mobilization) ([3]; 4 ip doses): more than 50 times
intestinal calcium transport at 7,020 pmol/day ([4]; 7,020 pmol/day, compared with 1,25(OH)2D3 at 780 pmol/day): some intestinal calcium transport activity, but still not to the same extent as 1,25(OH)2D3
intestinal calcium transport at 35,100 pmol/day ([4]; 35,100 pmol/day, compared with 1,25(OH)2D3 at 780 pmol/day): some intestinal calcium transport activity, but still not to the same extent as 1,25(OH)2D3
logs less potent than 1,25(OH)2D3 in the intestine ([4]; rats on low calcium diet (0.02%), 4 ip doses): approximately 5 log
binding to the receptor as compared to 1,25(OH)2D3 [5]: bound equally well; also recorded: equivalent
